Tests used:
[1] = biological target: Sodium-dependent dopamine transporter (Homo sapiens, UniProt Q01959); assay: DRUGMATRIX: Dopamine Transporter radioligand binding (ligand: [125I] RTI-55); format: cell membranes, CHO-K1, Membrane; settings: Not Active = under 50% inhibition at 10 µM
Histamine H2 receptor = Histamine H2 receptor (Homo sapiens, UniProt P25021); format: cell membranes, CHO-K1, Membrane; settings: cho-k1; further: in other assays of this panel Not Active means under 50% inhibition at 10 µM
[2] = biological target: T1, Neuropeptide Y receptor type 1 (Homo sapiens, UniProt P25929); format: cell membranes, Membrane; settings: sk-n-mc; further: in other assays of this panel Not Active means under 50% inhibition at 10 µM
T1 sequence (P25929 whole entry): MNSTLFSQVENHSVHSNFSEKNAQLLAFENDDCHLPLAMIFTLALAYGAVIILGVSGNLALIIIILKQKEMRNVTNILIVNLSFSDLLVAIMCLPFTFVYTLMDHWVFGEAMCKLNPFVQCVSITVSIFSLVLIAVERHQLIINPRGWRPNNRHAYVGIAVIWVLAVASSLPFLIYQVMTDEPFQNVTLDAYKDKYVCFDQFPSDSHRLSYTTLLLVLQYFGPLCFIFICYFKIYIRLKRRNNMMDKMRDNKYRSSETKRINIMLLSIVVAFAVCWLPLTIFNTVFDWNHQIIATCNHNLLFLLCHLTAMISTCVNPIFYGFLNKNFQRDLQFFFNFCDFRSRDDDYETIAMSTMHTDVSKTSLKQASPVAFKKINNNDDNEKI

[3] = DRUGMATRIX: Phorbol Ester radioligand binding (ligand: [3H] PDBu); format: cell membranes, Mus musculus, ICR, Brain, Membrane; settings: Not Active = under 50% inhibition at 10 µM
[4] = biological target: Tyrosine-protein kinase Fyn (Homo sapiens, UniProt P06241); assay: biochemical; format: cell-based, Insect cells;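 further: enzymatic inhibition of Fyn kinase activity measured with Poly(Glu:Tyr) as the phosphorylation substrate; in other assays of this panel Not Active means under 50% inhibition at 10 µM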
[5] = biological target: Receptor tyrosine-protein kinase erbB-2 (Homo sapiens, UniProt P04626); assay: biochemical; format: cell-based, Insect cells;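 further: inhibition of HER2 kinase enzyme activity, measured with Poly(Glu:Tyr) as the phosphorylation substrate; in other assays of this panel Not Active means under 50% inhibition at 10 µM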
Receptor tyrosine-protein kinase erbB-2, sequence (P04626 whole entry): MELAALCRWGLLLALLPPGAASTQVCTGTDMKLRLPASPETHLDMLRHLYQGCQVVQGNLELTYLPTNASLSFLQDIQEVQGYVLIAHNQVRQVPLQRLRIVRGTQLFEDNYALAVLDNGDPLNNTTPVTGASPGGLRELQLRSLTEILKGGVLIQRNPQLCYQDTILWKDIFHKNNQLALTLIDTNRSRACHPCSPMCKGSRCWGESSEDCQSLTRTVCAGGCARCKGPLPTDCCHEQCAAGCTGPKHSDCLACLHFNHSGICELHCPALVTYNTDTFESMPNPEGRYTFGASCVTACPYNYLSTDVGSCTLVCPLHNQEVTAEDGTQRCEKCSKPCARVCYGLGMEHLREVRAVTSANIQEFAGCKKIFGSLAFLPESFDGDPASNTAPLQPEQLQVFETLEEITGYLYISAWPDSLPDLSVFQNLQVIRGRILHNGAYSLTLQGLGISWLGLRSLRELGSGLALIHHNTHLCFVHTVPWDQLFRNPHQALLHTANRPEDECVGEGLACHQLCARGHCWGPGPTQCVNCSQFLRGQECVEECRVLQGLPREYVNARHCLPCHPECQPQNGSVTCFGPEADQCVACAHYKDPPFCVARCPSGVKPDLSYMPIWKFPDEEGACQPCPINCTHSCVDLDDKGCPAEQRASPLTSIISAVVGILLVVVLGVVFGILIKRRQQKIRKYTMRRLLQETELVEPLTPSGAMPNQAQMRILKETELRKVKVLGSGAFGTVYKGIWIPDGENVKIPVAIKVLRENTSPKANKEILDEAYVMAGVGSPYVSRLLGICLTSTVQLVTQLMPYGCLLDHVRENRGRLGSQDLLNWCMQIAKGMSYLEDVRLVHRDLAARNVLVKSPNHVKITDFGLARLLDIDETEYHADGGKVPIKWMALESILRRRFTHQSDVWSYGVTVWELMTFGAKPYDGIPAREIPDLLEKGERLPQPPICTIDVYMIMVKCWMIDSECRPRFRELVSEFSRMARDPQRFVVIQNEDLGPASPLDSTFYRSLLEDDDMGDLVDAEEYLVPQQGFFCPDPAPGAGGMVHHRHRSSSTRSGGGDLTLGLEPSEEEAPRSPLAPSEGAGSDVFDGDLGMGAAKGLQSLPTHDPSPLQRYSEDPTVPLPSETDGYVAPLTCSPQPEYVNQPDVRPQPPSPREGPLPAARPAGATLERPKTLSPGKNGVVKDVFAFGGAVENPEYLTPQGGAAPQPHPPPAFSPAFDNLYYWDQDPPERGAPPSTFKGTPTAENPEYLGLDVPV

Tyrosine-protein kinase Fyn, sequence (P06241 whole entry): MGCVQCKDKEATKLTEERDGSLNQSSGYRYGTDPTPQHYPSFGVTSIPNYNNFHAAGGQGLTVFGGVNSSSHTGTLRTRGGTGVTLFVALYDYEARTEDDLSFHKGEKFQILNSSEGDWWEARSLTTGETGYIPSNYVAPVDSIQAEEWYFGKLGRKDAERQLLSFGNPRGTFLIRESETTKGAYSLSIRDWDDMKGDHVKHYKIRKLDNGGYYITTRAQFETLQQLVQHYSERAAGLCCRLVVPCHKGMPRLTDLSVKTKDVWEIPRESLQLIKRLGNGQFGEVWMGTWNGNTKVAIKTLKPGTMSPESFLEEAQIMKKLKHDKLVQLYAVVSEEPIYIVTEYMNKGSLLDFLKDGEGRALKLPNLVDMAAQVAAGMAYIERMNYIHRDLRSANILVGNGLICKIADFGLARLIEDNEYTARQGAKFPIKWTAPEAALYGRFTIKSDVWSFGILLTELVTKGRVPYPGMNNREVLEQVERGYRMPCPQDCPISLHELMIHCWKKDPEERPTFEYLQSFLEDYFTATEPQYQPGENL
Sodium-dependent dopamine transporter, sequence (Q01959 whole entry): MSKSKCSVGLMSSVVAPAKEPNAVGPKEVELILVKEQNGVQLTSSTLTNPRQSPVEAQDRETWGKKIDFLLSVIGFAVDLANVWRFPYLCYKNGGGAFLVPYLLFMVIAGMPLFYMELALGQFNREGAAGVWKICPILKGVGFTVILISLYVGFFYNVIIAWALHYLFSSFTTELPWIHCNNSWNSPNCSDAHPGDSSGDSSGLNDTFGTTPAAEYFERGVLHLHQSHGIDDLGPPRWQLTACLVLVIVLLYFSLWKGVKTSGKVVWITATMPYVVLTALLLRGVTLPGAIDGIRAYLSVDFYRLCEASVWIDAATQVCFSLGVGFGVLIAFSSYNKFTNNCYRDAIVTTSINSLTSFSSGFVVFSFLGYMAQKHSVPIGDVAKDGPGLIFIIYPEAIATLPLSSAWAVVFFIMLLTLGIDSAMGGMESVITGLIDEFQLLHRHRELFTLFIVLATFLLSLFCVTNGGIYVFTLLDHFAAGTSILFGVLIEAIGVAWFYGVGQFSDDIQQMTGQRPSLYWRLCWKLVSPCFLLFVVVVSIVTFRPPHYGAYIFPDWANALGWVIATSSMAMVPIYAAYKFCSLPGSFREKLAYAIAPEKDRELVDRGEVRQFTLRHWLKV
Histamine H2 receptor, sequence (P25021 whole entry): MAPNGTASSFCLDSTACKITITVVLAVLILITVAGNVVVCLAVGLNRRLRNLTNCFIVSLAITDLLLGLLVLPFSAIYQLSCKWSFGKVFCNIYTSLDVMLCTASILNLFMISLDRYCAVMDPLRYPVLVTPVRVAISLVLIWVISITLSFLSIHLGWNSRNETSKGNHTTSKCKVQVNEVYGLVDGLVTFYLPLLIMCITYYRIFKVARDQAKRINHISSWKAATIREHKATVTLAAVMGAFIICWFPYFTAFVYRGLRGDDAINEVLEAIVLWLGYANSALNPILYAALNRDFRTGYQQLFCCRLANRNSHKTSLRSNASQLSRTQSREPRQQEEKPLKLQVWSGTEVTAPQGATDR

Compound	IC50 ([1]; cho-k1)	IC50 (Histamine H2 receptor)	IC50 [2]	IC50 [3]	Ki [3]	IC50 ([4]; insect cells)	IC50 ([5]; read-out: IC50) [nM]	IC50 ([5]; insect cells)	IC50 ([1]; read-out: IC50) [nM]	Ki ([1]; read-out: Ki) [nM]	IC50 ([4]; read-out: IC50) [nM]	Ki [2]	Ki ([1]; cho-k1)	Ki (Histamine H2 receptor)	IC50 ([4]; insect cells, read-out: IC50) [nM]
CCOc1nc2cccc(C(=O)O)c2n1Cc1ccc(-c2ccccc2-c2nnn[nH]2)cc1	Not Active	Not Active	Not Active	Not Active	Not Active	Not Active	5950	–	–	–	–	–	–	–	–
O=C(O)CCCc1cccs1	Not Active	Not Active	Not Active	Not Active	Not Active	Not Active	–	Not Active	–	–	–	–	–	–	–
COc1ccccc1N	Not Active	Not Active	Not Active	Not Active	Not Active	Not Active	–	Not Active	–	–	–	–	–	–	–
O=C(c1ccccc1F)N1CCC(Cc2ccccc2)CC1	Not Active	Not Active	Not Active	Not Active	Not Active	Not Active	–	Not Active	–	–	–	–	–	–	–
Cc1c(O)cccc1C(=O)N[C@@H](CSc1ccccc1)[C@H](O)CN1C[C@H]2CCCC[C@H]2C[C@H]1C(=O)NC(C)(C)C	–	Not Active	Not Active	Not Active	Not Active	–	–	Not Active	15500	12300	7970	–	–	–	–
CC(O)COC[C@H]1O[C@@H]2O[C@H]3[C@H](O)[C@@H](O)[C@@H](O[C@H]4[C@H](O)[C@@H](O)[C@@H](O[C@H]5[C@H](O)[C@@H](O)[C@@H](O[C@H]6[C@H](O)[C@@H](O)[C@@H](O[C@H]7[C@H](O)[C@@H](O)[C@@H](O[C@H]8[C@H](O)[C@@H](O)[C@@H](O[C@H]1[C@H](O)[C@H]2O)O[C@@H]8COCC(C)O)O[C@@H]7COCC(C)O)O[C@@H]6COCC(C)O)O[C@@H]5COCC(C)O)O[C@@H]4COCC(C)O)O[C@@H]3COCC(C)O (stereo partly drawn) [2-HYDROXYPROPYL-BETA-CYCLODEXTRIN]	–	Not Active	Not Active	Not Active	Not Active	–	–	Not Active	1690	1340	3040	–	–	–	–
NC(=O)c1cccc(N)c1 [3-AMINOBENZAMIDE]	Not Active	Not Active	Not Active	Not Active	Not Active	Not Active	–	Not Active	–	–	–	–	–	–	–
C[C@H]1O[C@H](O[C@H]2[C@H](O)[C@@H](O)[C@@H](O[C@H]3[C@H](O)[C@@H](O)C(O)O[C@@H]3CO)O[C@@H]2CO)[C@H](O)[C@@H](O)[C@@H]1N[C@H]1C=C(CO)[C@@H](O)[C@H](O)[C@H]1O (some centres undefined) [ACARBOSE]	Not Active	Not Active	Not Active	Not Active	Not Active	Not Active	–	Not Active	–	–	–	–	–	–	–
CC[C@H]1[C@@H]2C[C@H]3[C@@H]4N(C)c5ccccc5[C@]45C[C@@H]([C@@H]2[C@H]5O)N3[C@@H]1O [AJMALINE]	Not Active	Not Active	Not Active	Not Active	Not Active	Not Active	–	Not Active	–	–	–	–	–	–	–
NC12CC3CC(CC(C3)C1)C2 [AMANTADINE]	Not Active	Not Active	Not Active	Not Active	Not Active	Not Active	–	Not Active	–	–	–	–	–	–	–
NCCCNCCSP(=O)(O)O [AMIFOSTINE]	Not Active	Not Active	Not Active	Not Active	Not Active	Not Active	–	Not Active	–	–	–	–	–	–	–
CN(C)CCC=C1c2ccccc2CCc2ccccc21 [AMITRIPTYLINE]	Not Active	–	Not Active	Not Active	Not Active	Not Active	–	Not Active	–	–	–	–	–	–	–
CC(=O)Oc1ccccc1C(=O)O [ASPIRIN]	Not Active	Not Active	Not Active	Not Active	Not Active	Not Active	–	Not Active	–	–	–	–	–	–	–
CC(C)c1c(C(=O)Nc2ccccc2)c(-c2ccccc2)c(-c2ccc(F)cc2)n1CC[C@@H](O)C[C@@H](O)CC(=O)O [ATORVASTATIN]	Not Active	Not Active	Not Active	Not Active	Not Active	Not Active	–	Not Active	–	–	–	–	–	–	–
CC(=O)OC[C@H]1O[C@@H](n2ncc(=O)[nH]c2=O)[C@H](OC(C)=O)[C@@H]1OC(C)=O [AZARIBINE]	Not Active	Not Active	Not Active	Not Active	Not Active	Not Active	–	Not Active	–	–	–	–	–	–	–
C[C@H]1[C@H](NC(=O)/C(=N\OC(C)(C)C(=O)O)c2csc(N)n2)C(=O)N1S(=O)(=O)O [AZTREONAM]	Not Active	Not Active	Not Active	Not Active	Not Active	Not Active	–	Not Active	–	–	–	–	–	–	–
O=C(O)CCNC(=O)c1ccc(/N=N/c2ccc(O)c(C(=O)O)c2)cc1 [BALSALAZIDE]	Not Active	Not Active	Not Active	Not Active	Not Active	Not Active	–	Not Active	–	–	–	–	–	–	–

Compound	IC50 ([1]; cho-k1)	IC50 (Histamine H2 receptor)	IC50 [2]	IC50 [3]	Ki [3]	IC50 ([4]; insect cells)	IC50 ([5]; read-out: IC50) [nM]	IC50 ([5]; insect cells)	IC50 ([1]; read-out: IC50) [nM]	Ki ([1]; read-out: Ki) [nM]	IC50 ([4]; read-out: IC50) [nM]	Ki [2]	Ki ([1]; cho-k1)	Ki (Histamine H2 receptor)	IC50 ([4]; insect cells, read-out: IC50) [nM]
COc1cc(OC)c(C(=O)CCCN2CCCC2)c(OC)c1 [BUFLOMEDIL]	Not Active	Not Active	Not Active	Not Active	Not Active	Not Active	–	Not Active	–	–	–	–	–	–	–
Cn1c(=O)c2c(ncn2C)n(C)c1=O [CAFFEINE]	Not Active	Not Active	Not Active	Not Active	Not Active	Not Active	–	Not Active	–	–	–	–	–	–	–
ClC(Cl)(Cl)Cl [CARBON TETRACHLORIDE]	Not Active	Not Active	Not Active	Not Active	Not Active	Not Active	–	Not Active	–	–	–	–	–	–	–
CO/N=C(\C(=O)N[C@@H]1C(=O)N2C(C(=O)O)=C(COC(C)=O)CS[C@H]12)c1csc(N)n1 [CEFOTAXIME]	Not Active	Not Active	Not Active	Not Active	Not Active	Not Active	–	Not Active	–	–	–	–	–	–	–
CNC1=Nc2ccc(Cl)cc2C(c2ccccc2)=[N+]([O-])C1 [CHLORDIAZEPOXIDE]	Not Active	Not Active	Not Active	Not Active	Not Active	Not Active	–	Not Active	–	–	–	–	–	–	–
Cc1cc(O)cc(C)c1Cl [CHLOROXYLENOL]	Not Active	Not Active	Not Active	Not Active	Not Active	Not Active	–	Not Active	–	–	–	–	–	–	–
CCCNC(=O)NS(=O)(=O)c1ccc(Cl)cc1 [CHLORPROPAMIDE]	Not Active	Not Active	Not Active	Not Active	Not Active	Not Active	–	Not Active	–	–	–	–	–	–	–
NS(=O)(=O)c1cc(C2(O)NC(=O)c3ccccc32)ccc1Cl (centres undefined) [CHLORTHALIDONE]	Not Active	Not Active	Not Active	Not Active	Not Active	Not Active	–	Not Active	–	–	–	–	–	–	–
O=C(O)CC(O)(CC(=O)O)C(=O)O [CITRIC ACID]	Not Active	Not Active	Not Active	Not Active	Not Active	Not Active	–	Not Active	–	–	–	–	–	–	–
CC(C)NCC(O)c1ccccc1Cl (centres undefined) [CLORPRENALINE]	Not Active	Not Active	Not Active	Not Active	Not Active	Not Active	–	Not Active	–	–	–	–	–	–	–
CN1CCN(C(c2ccccc2)c2ccccc2)CC1 [CYCLIZINE]	–	Not Active	Not Active	Not Active	Not Active	Not Active	–	Not Active	763	606	–	–	–	–	–
CN1C[C@@H]2C[C@H]1CN2c1cc2c(cc1F)c(=O)c(C(=O)O)cn2C1CC1 [DANOFLOXACIN]	Not Active	Not Active	Not Active	Not Active	Not Active	Not Active	–	Not Active	–	–	–	–	–	–	–
COc1cccc2c1C(=O)c1c(O)c3c(c(O)c1C2=O)C[C@@](O)(C(C)=O)C[C@@H]3O[C@H]1C[C@H](N)[C@H](O)[C@H](C)O1 [DAUNORUBICIN]	Not Active	Not Active	Not Active	Not Active	Not Active	Not Active	–	Not Active	–	–	–	–	–	–	–
O=C(O)c1cc(-c2ccc(F)cc2F)ccc1O [DIFLUNISAL]	Not Active	Not Active	–	Not Active	Not Active	Not Active	–	Not Active	–	–	–	Not Active	–	–	–
N=C(N)c1ccc(OCCCCCOc2ccc(C(=N)N)cc2)cc1 [PENTAMIDINE]	–	Not Active	Not Active	Not Active	Not Active	Not Active	–	Not Active	–	–	–	–	–	–	–
COLISTIN	Not Active	Not Active	Not Active	Not Active	Not Active	–	–	–	–	–	–	Not Active	Not Active	Not Active	959
